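Briefly, cells in 96-well plates were exposed to five compound concentrations for 48 h, and endpoints were estimated by linear interpolation. At the GI50, growth is halved. TGI marks complete inhibition of growth.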

What all share (test): NCI-60 cell line screen, 48 h
Test [1] has as its system M14 melanoma.
For test [2], the system named is SN12C renal.
In test [3] the test system is HCT-116 colon.
In test [4] the test system is SK-MEL-28 melanoma.
For test [5], the system named is UACC-257 melanoma.
The subject of test [6] is HT29 colon.
For test [7], the system named is OVCAR-3 ovarian.
Test [8] deals with NCI-H226 lung.
In test [9] the test system is SNB-75 CNS.

For the compound `COC(COC(N)=O)C1=C(N2CC2)C(=O)C(C)=C(N2CC2)C1=O` (configuration not stated), the TGI in test [1] is 0.147 µM; in test [2] it was 1.28 µM; in test [3], 0.134 µM; in [4] it was 0.484 µM; in test [5], 0.579 µM; in test [6], 0.521 µM. For the same compound, the TGI in [7] came out at 0.379 µM; in test [8], 0.299 µM; in test [9], 0.322 µM.

For the compound `CC(=O)Nc1ccc(/C=C/C(=O)c2sc(-c3cccnc3)nc2C)cc1`, the TGI in [2], in [4], in test [5], in test [6], in [7] and in test [8] was over 100 µM throughout. For the same compound, in [9], the TGI is over 100 µM.

Consider `C=C(C)[C@H]1CC[C@@]2(C)C(C1)[C@H](C)CC[C@@H]2O` (some centres not stated), for which the TGI in test [1], in [2], in test [3], in [4], in test [5] and in [6] was over 100 µM each time. Also, the TGI in [7], in [8] and in [9] was over 100 µM each time.

Regarding `COC1CCC(OS(C)(=O)=O)C(CO)O1` (configuration not stated), the TGI in test [1], in [2], in [3], in test [4], in [5] and in [6] was over 100 µM in each case. The TGI in test [7] and in [9] was over 100 µM in each case.

As to `CCN(CC)CCCNc1nccc2c(C)c3c(cc12)c1cnccc1n3C`, the TGI in test [1] was found to be 1.12 µM; in test [2] it was 1.75 µM; in [3], 0.378 µM; in [4], 1.47 µM; in test [6], 1.02 µM; in test [7], 0.735 µM. In addition, the TGI in [9] worked out at 1.74 µM.

Turning to `COc1cc2cc(OC(C)=O)c3cc4c(cc3c2c(OC)c1OC)OCO4`, the TGI in test [1], in test [2], in [3], in test [4], in test [5] and in test [6] was over 100 µM in each case. The TGI in [7], in [8] and in test [9] was over 100 µM each time.

Turning to `O=C1[C@H]2ON(c3ccccc3)C(c3ccc([N+](=O)[O-])cc3)[C@H]2C(=O)N1c1ccc(Cc2ccc(N3C(=O)[C@@H]4ON(c5ccccc5)C(c5ccc([N+](=O)[O-])cc5)[C@@H]4C3=O)cc2)cc1` (some centres not stated), the TGI in test [1] was 38.9 µM; in test [2] it was over 100 µM; in test [3] it was over 100 µM; in test [4] it was over 100 µM; in test [5] it was over 100 µM; in [6], over 100 µM. Also, the TGI in [7], in test [8] and in test [9] was over 100 µM in each case.

For the compound `C=CSCCC(N)C(=O)O` (configuration not stated), the TGI in [1], in test [2], in test [3], in test [4], in test [5] and in test [6] was over 100 µM in each case. Further, the TGI in [7], in test [8] and in test [9] was over 100 µM each time.

As for `CC1=N/C(=C/c2ccc3c(c2)OCO3)C(=O)O1`, the TGI in test [1], in [2], in [3], in test [4], in test [5] and in test [6] was over 100 µM each time. Also, the TGI in [7] and in test [9] was over 100 µM in each case.

On to `C=CCNC(=O)NCCCCC(NC(C)=O)C(=O)NCc1ccccc1` (configuration not stated), for which the TGI in [1], in test [2], in [4], in test [5], in [6] and in [7] was over 100 µM throughout. For the same compound, the TGI in [8] and in [9] was over 100 µM in each case.

With `O=C(C(=O)c1cc2ccccc2[nH]1)c1cc2ccccc2[nH]1`, the TGI in test [1], in [2], in test [3], in test [4], in test [5] and in test [6] was over 347 µM in each case. Further, the TGI in test [7] was 95.7 µM; in test [8], over 347 µM; in test [9], over 347 µM.

For `COc1cc(/C=C2\CC3C4CC=C5C[C@@H](OC(C)=O)CC[C@]5(C)C4CC[C@]3(C)C2=O)ccc1OCCN1CCCCC1` (some centres not stated), the GI50 in test [1] is 2.09 µM; in test [4], 3.24 µM; in test [5] it was 3.85 µM; in [6], 1.88 µM; in test [7] it was 2.05 µM; in [8], 11.8 µM. Also, the GI50 in [9] was 27.3 µM. The TGI in [1] was 3.79 µM; in test [4], over 100 µM; in test [5] it was over 100 µM; in test [6] it was over 100 µM; in [7], 5.29 µM; in test [8], 28.6 µM. The compound further had a TGI in test [9] of 56.9 µM.

On to `Cc1cnc2ccc(C)c([N+](=O)[O-])c2c1NCCCN(C)C`, for which the TGI in test [1], in test [2], in test [3], in test [4], in test [5] and in test [6] was over 100 µM in each case. Further, the TGI in test [7] and in test [8] was over 100 µM in each case.

Take `C=C(CCCCC)CN1CCCC1C(C)=O` (configuration not stated): the TGI was over 100 µM in test [1]; 98.6 µM in test [2]; over 80.9 µM in [3]; over 100 µM in test [4]; over 73.3 µM in test [5]; over 100 µM in test [6]. Also, the TGI in test [7] was over 100 µM; in test [8], 68.9 µM; in [9], 78.7 µM.

For `NCCSSCc1ccccc1CSSCCN`, the TGI in test [1], in test [2], in test [3], in test [4], in test [5] and in test [6] was over 100 µM in each case. For the same compound, the TGI in test [7], in test [8] and in test [9] was over 100 µM each time.

The values are drawn from PubChem BioAssay (NCI).
